Test results as given in ChEMBL document CHEMBL1201862, “PubChem BioAssay data set” (2004).
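Cells were grown in 96-well plates and exposed to each compound for 48 hours at five concentrations; endpoints were interpolated linearly between bracketing concentrations, or set to the highest concentration if not reached. GI50 is the concentration that inhibits growth by half.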 Activity calls are given as the source filed them. Cut-off read from the data, not from the text of the source: active = GI50 up to about 1.1 µM and inactive = higher.

Columns and labels:
Assay in all cases: inhibition of tumour cell growth, NCI panel, 48 h
786-0 = tested on: 786-0
CAKI-1 = tested on: CAKI-1
HOP-92 = tested on: HOP-92
IGROV-1 = tested on: IGROV-1
MDA-MB-231 = tested on: MDA-MB-231
MOLT-4 = tested on: MOLT-4
NCI-H460 = tested on: NCI-H460
RPMI-8226 = tested on: RPMI-8226
SF-295 = tested on: SF-295
SK-OV-3 = tested on: SK-OV-3
SN12C = tested on: SN12C
SNB-19 = tested on: SNB-19
SR = tested on: SR
DU-145 = tested on: DU-145
SNB-75 = tested on: SNB-75
T47D = tested on: T47D

SMILES | GI50 (786-0) | GI50 (CAKI-1) | GI50 (HOP-92) | GI50 (IGROV-1) | GI50 (MDA-MB-231) | GI50 (MOLT-4) | GI50 (NCI-H460) | GI50 (RPMI-8226) | GI50 (SF-295) | GI50 (SK-OV-3) | GI50 (SN12C) | GI50 (SNB-19) | GI50 (SR) | GI50 (DU-145) | GI50 (SNB-75) | GI50 (T47D)
O=C1O[C@H](c2ccc3c(c2)OCO3)[C@H]2CO[C@@H](c3ccc4c(c3)OCO4)[C@@H]12 | > 100 µM (inactive) | 77.8 µM (inactive) | > 100 µM (inactive) | > 100 µM (inactive) | > 100 µM (inactive) | 43.5 µM (inactive) | > 100 µM (inactive) | 33.9 µM (inactive) | 60.1 µM (inactive) | > 100 µM (inactive) | > 100 µM (inactive) | > 100 µM (inactive) | 42.7 µM (inactive) | – | – | –
C=CCN1C(=O)/C(=C/c2ccco2)N=C1SC1OC(COC(C)=O)C(OC(C)=O)C(OC(C)=O)C1OC(C)=O (stereo not given) | – | > 100 µM (inactive) | 72.9 µM (inactive) | > 100 µM (inactive) | > 100 µM (inactive) | 32.7 µM (inactive) | > 100 µM (inactive) | 31.6 µM (inactive) | > 100 µM (inactive) | > 100 µM (inactive) | – | – | 38.9 µM (inactive) | 80.2 µM (inactive) | > 100 µM (inactive) | –
CSc1nncc2[nH]c(C)nc12 | > 100 µM (inactive) | > 100 µM (inactive) | – | > 100 µM (inactive) | > 100 µM (inactive) | > 100 µM (inactive) | – | > 100 µM (inactive) | > 100 µM (inactive) | > 100 µM (inactive) | > 100 µM (inactive) | – | – | – | > 100 µM (inactive) | > 100 µM (inactive)
CCOC(=O)C(O)(NC(C)=O)C(F)(F)F (stereo not given) | – | > 100 µM (inactive) | 26.2 µM (inactive) | > 100 µM (inactive) | – | > 100 µM (inactive) | – | > 100 µM (inactive) | > 100 µM (inactive) | > 100 µM (inactive) | > 100 µM (inactive) | > 100 µM (inactive) | 7.24 µM (inactive) | > 100 µM (inactive) | > 100 µM (inactive) | > 100 µM (inactive)
CC1=C(C#N)c2nc3ccccc3n2C(=O)C1(C)CCO (stereo not given) | > 100 µM (inactive) | > 100 µM (inactive) | > 100 µM (inactive) | > 100 µM (inactive) | > 100 µM (inactive) | – | > 100 µM (inactive) | – | > 100 µM (inactive) | > 100 µM (inactive) | > 100 µM (inactive) | > 100 µM (inactive) | 24.3 µM (inactive) | > 100 µM (inactive) | > 100 µM (inactive) | –
CSC1=N/C(=C\c2ccc(C)cc2)C(=O)N1CN1CCCCC1 | 88.7 µM (inactive) | – | 67.3 µM (inactive) | 46.6 µM (inactive) | > 100 µM (inactive) | > 100 µM (inactive) | – | 32.3 µM (inactive) | > 100 µM (inactive) | > 100 µM (inactive) | > 100 µM (inactive) | > 100 µM (inactive) | 89.7 µM (inactive) | > 100 µM (inactive) | 69.5 µM (inactive) | –
O=C(/C=C/c1ccccc1O)/C=C/c1ccccc1O | 1.69 µM (inactive) | 1.52 µM (inactive) | 1.39 µM (inactive) | 1.64 µM (inactive) | 2.48 µM (inactive) | 1.26 µM (inactive) | 1.35 µM (inactive) | 0.19 µM (active) | 1.67 µM (inactive) | 1.86 µM (inactive) | 1.72 µM (inactive) | 1.82 µM (inactive) | 0.526 µM (active) | 1.51 µM (inactive) | 3.9 µM (inactive) | –
COC(=O)CNCC1OC2OC(C)(C)OC2C1N=[N+]=[N-] (stereo not given) | > 100 µM (inactive) | > 100 µM (inactive) | > 100 µM (inactive) | > 100 µM (inactive) | – | > 100 µM (inactive) | > 100 µM (inactive) | > 100 µM (inactive) | > 100 µM (inactive) | > 100 µM (inactive) | > 100 µM (inactive) | > 100 µM (inactive) | > 100 µM (inactive) | > 100 µM (inactive) | > 100 µM (inactive) | > 100 µM (inactive)
